Assay results published in PMC6155365, “A Phase 3 Study of Micafungin Versus Amphotericin B Deoxycholate in Infants With Invasive Candidiasis” (The Pediatric Infectious Disease Journal, 2018).
Values after ≈ are worked out from the molar mass of the structure shown. Read-outs that look alike come from different tables or passages of the source. *1 amine or outer side, *2 acyl side, *3 side chain or, on linkers, in order; H or OH if unused. Where a SMILES comes first, the peptide text is derived from it. Bridges are numbered along the chain shown (N, C = ends). [ ]: non-standard residue; d: D form. The star is where a group is joined. hTyr(3S-OH,4S-OH,3'-OSO3H) = N[C@H](C(=O)O)[C@H](O)[C@@H](O)c1ccc(O)c(OS(=O)(=O)O)c1; Orn(4R-OH,5R-OH) = O=C([C@H](C[C@@H](O)[C@@H](O)N[*:3])N[*:1])[*:2]; Pro(3S-OH,4S-Me) = C[C@H]1CN[C@H](C(=O)O)[C@H]1O; X1 = CCCCCOc1ccc(-c2cc(-c3ccc(C(=O)*)cc3)no2)cc1; Gln(3R-OH) = NC(=O)C[C@@H](O)[C@H](N)C(=O)O; Hyp = O=C(O)[C@@H]1C[C@@H](O)CN1

Legend:
[1] = Population PK of MCA, linear 2-compartment model with body weight-based allometric scaling; format: in vivo; conditions: Infants (this study), mean ± SD
Procedure: Up to 3 PK blood samples (≤300 µL) were collected from infants who participated in the PK portion of the study. A population PK approach was used to define the PK profile of MCA. A linear 2-compartment population PK model with body weight–based allometric scaling was developed in neonatal and pediatric patient populations by amending a previous model[19],[26] and including data from the current study in addition to 2 previous phase 1 studies and 1 previous phase 3 study in infants.[20],[27],[28] Individual post hoc estimates of PK parameters, simulated area under the curve (AUC) at steady state and maximum plasma concentration at the end of 2-hour infusion at once-daily dose of MCA 10 mg/kg were derived based on the model.
A population PK model was developed using data from this and 8 other studies (data on file at Astellas). A 2-compartment model with body weight–based allometric scaling and first-order elimination adequately described MCA PK data regardless of age. In this study, PK data were collected from 12 of 30 study participants (Table 2).

[2] = adults, 100 mg/d (approximately 2 mg/kg); cited from earlier work
Source text: AmB-D has been the standard of treatment for neonatal IC in the United States for many years,[7] but nephrotoxicity is a dose-limiting toxicity.[10] […] The use of fluconazole in infants may be limited because of the resistance of some Candida spp., its frequent use as prophylaxis in extremely premature infants, its poor activity against fungal biofilms and the high doses required to reach therapeutic concentrations.[9],[ ...

[3] = tested on: Candida spp. (invasive candidiasis); assay: Phase 3 randomized double-blind study, efficacy in infants with proven invasive candidiasis (NCT00815516); format: in vivo; conditions: for Early discontinuation of treatment: lack of efficacy / Infants alive at 1 week after last dose but not fungal free: MCA n = 20, AmB-D n = 10; for Positive clinical response: at end of study and 1 week after last dose, infants with signs at baseline (MCA 18, AmB-D 10); for Infants alive at 1 week after last dose but not fungal free: did not meet primary efficacy end point
Procedure: This was a phase 3, randomized, double-blind, multicenter, parallel-group, noninferiority study (ClinicalTrials.gov identifier: […] The follow-up was performed to capture emergent and recurrent fungal infections, to obtain a final safety evaluation and to check for resolution of those IC episodes that had not resolved by the end of treatment. […] An independent Data Review Panel reviewed and confirmed the diagnosis of IC and evaluated the efficacy outcome for each subject. Drug safety was evaluated by an unblinded Data Safety and Monitoring Board. […] FFS was defined as an infant alive and fungal free with no requirement for continued treatment with alternative antifungal therapy. […] Responses were defined as follows: complete response (resolution of all attributable signs related to fungal infection); partial response (improvement in attributable signs related to the fungal infection); stabilization (minor improvement or no change in attributable signs related to the fungal infection and the infant continued on therapy without deterioration); progression (deterioration in attributable signs related to the fungal infection or death presumably related to fungal infection). […] Persistence was defined by continued isolation or histologic documentation from a normally sterile site. […] Following positive Candida cultures, end-organ dissemination was assessed using abdominal ultrasound and/or computed tomography scanning, echocardiogram, head imaging with ultrasound, magnetic resonance imaging or computed tomography scanning or ophthalmoscopy. An emergent fungal infection was defined as a non-Candida invasive fungal infection detected at any time during the study or any invasive fungal infection detected >96 hours postbaseline involving a Candida spp. other than those detected at baseline.

C. parapsilosis [4] = assay: In vitro susceptibility MIC, CLSI M27-A3; format: cell-based, Candida parapsilosis
Procedure: (§1) All fungal isolates were identified to the genus and species level using standard techniques. Briefly, each isolate was subcultured in CHROMagar Candida (Becton Dickinson and Company, Sparks, MD) and molecular identification by sequencing of the internal transcribed spacer region and/or 28S ribosomal subunit. In vitro susceptibility testing was performed on all fungal isolates collected during the study to calculate the minimum inhibitory concentrations (MICs) according to Clinical Laboratory Standards Institutes (CLSI) methodology (M27-A3) and European Committee on Antimicrobial Susceptibility Testing (EUCAST) methodology (EDef7.1).[24],[25]

C. parapsilosis [5] = assay: In vitro susceptibility MIC, EUCAST EDef7.1; format: cell-based, Candida parapsilosis; conditions: baseline isolate
Procedure: as §1

invasive candidiasis = conditions: patients <16 years with IC; MCA 2 mg/kg, liposomal amphotericin B 3 mg/kg; cited from earlier work
Procedure: High rates of survival and successful treatment responses to MCA among patients <18 years of age with IC have been reported in prospective, observational studies.[32],[33] Success rates in pediatric studies are similar to the findings of our study in infants. For example, in a pediatric substudy from a randomized, double-blind study comparing MCA (2 mg/kg) with liposomal amphotericin B (3 mg/kg) in patients <16 years of age with IC, the investigators reported similar treatment success rates after MCA (defined as both a clinical and mycologic response at the end of therapy; 73% compared with 76 ...

[6] = Adverse events, safety analysis set; conditions: for Early discontinuation of treatment: AEs / Electrolyte supplementation received: MCA n = 20, AmB-D n = 10; for Deaths: all deaths reported from the study; for Magnesium supplementation / Potassium supplementation: in vivo; for TEAE anemia / TEAE thrombocytopenia: irrespective of relatedness to study drug; for Drug-related TEAEs / Drug-related TEAEs leading to death / Drug-related serious TEAEs: possible or probable, as assessed by the investigator; for Serious TEAEs / TEAEs: safety analysis set; for TEAEs: MCA N = 20 (10 mg/kg/d), AmB-D N = 10 (1 mg/kg/d)
[7] = premature and nonpremature infants <2 years, 9 clinical trials; cited from earlier work
Source text: There was a slightly greater degree of nephrotoxicity at >25% baseline caused by AmB-D, although AmB-D-induced nephrotoxicity, defined as elevated serum creatinine, in the infant is usually reversible.[37] In understanding the relative tolerability of AmB-D in infants within the neonatal intensive care unit compared with older children, there are several hypotheses, including a greater nephronal reserve or the attention to appropriate hy ...

C. albicans [8] = assay: In vitro susceptibility MIC, CLSI M27-A3; format: cell-based; conditions: Candida albicans
Procedure: as §1

C. albicans [9] = assay: In vitro susceptibility MIC, EUCAST EDef7.1; format: cell-based, Candida albicans; conditions: for MIC: Candida albicans
Procedure: as §1

[10] = Clinical laboratory test findings, safety analysis set; format: in vivo, infants; conditions: postbaseline increase from baseline
C. glabrata [11] = assay: In vitro susceptibility MIC, CLSI M27-A3; format: cell-based, Candida glabrata; conditions: Nakaseomyces glabratus; baseline isolate, persistent infection in AmB-D group
Procedure: as §1

[12] = in vivo
C. glabrata [13] = assay: In vitro susceptibility MIC, EUCAST EDef7.1; format: cell-based, Candida glabrata; conditions: Nakaseomyces glabratus; baseline isolate, persistent infection in AmB-D group
Procedure: as §1

[14] = 216 h, follow-up cultures on day 9, AmB-D group infant
[15] = baseline isolate, persistent infection in AmB-D group

| SMILES | Early discontinuation of treatment: lack of efficacy [3] | Positive clinical response [3] | Infants alive at 1 week after last dose but not fungal free [3] | Early discontinuation of treatment: AEs [6] | Electrolyte supplementation received [6] | TEAEs: Blood and lymphatic system disorders ([6]; MedDRA system organ class) | TEAEs: General disorders and administration site conditions ([6]; MedDRA system organ class) | TEAEs: Investigations ([6]; MedDRA system organ class) | TEAEs: Metabolism and nutrition disorders ([6]; MedDRA system organ class) | TEAEs: Respiratory, thoracic and mediastinal disorders ([6]; MedDRA system organ class) | TEAEs: Skin and subcutaneous tissue disorders ([6]; MedDRA system organ class) | TEAEs: Vascular disorders ([6]; MedDRA system organ class) | Deaths [6] | Magnesium supplementation [6] | Potassium supplementation [6] | TEAE anemia [6] | TEAE thrombocytopenia [6] | Drug-related TEAEs [6] | Drug-related TEAEs leading to death [6] | Drug-related serious TEAEs [6] | further results |
| --- | --- | --- | --- | --- | --- | --- | --- | --- | --- | --- | --- | --- | --- | --- | --- | --- | --- | --- | --- | --- | --- |
| CCCCCOc1ccc(-c2cc(-c3ccc(C(=O)N[C@H]4C[C@@H](O)[C@@H](O)NC(=O)[C@@H]5[C@@H](O)[C@@H](C)CN5C(=O)[C@H]([C@H](O)CC(N)=O)NC(=O)[C@H]([C@H](O)[C@@H](O)c5ccc(O)c(OS(=O)(=O)O)c5)NC(=O)[C@@H]5C[C@@H](O)CN5C(=O)[C@H]([C@@H](C)O)NC4=O)cc3)no2)cc1 [MCA, micafungin] (X1-[Orn(4R-OH,5R-OH)]T[Hyp][hTyr(3S-OH,4S-OH,3'-OSO3H)][Gln(3R-OH)][Pro(3S-OH,4S-Me)]; lactam 1-C) | 1 (5%) n (%) | 61% | 5 (25%) n (%) | 3 (15%) n (%) | 6 (30%) n (%) | 10 (50) n (%) | 3 (15) n (%) | 5 (25) n (%) | 1 (5) n (%) | 0 n (%) | 1 (5) n (%) | 3 (15) n (%) | 3 (15) n (%) | 3 (15%) n (%) | 2 (10%) n (%) | 9 (45%) n (%) | 2 (10%) n (%) | 11 (55) n (%) | 0 n (%) | 6 (30) n (%) | CL ([1]; N = 12, MCA 10 mg/kg iv, individual post hoc estimates): 0.068 ± 0.039 (0.022–0.147) L/h; CL ([1]; N = 12, MCA 10 mg/kg iv): 0.487 ± 0.200 (0.225–0.876) mL/min/kg; Vss ([1]; N = 12, MCA 10 mg/kg iv): 0.480 ± 0.159 (0.306–0.799) L/kg; t1/2 ([1]; N = 12, MCA 10 mg/kg iv): 12.25 ± 2.87 (7.51–16.92) h; AUCss ([1]; N = 12, simulated at 10 mg/kg once daily, 2-hour infusion): 399.32 ± 163.88 (190.33–742.30) μg·h/mL; C2h (steady-state plasma concentration at end of 2-hour infusion) ([1]; N = 12, simulated at 10 mg/kg, 2-hour infusion): 31.06 ± 10.53 (17.01–49.69) μg/mL; Mean exposure (AUC) [2]: 100000 ng·h/mL; MCA MIC, CLSI (C. parapsilosis [4]; baseline isolate, persistent infection 1 of 2 in MCA group): 1 µg/mL; MCA MIC, CLSI (C. parapsilosis [4]; baseline isolate, the other persistent infection in MCA group): 1 µg/mL; MCA MIC, CLSI (C. parapsilosis [4]; follow-up isolates collected on day 19, both MCA-treated infants): 1 µg/mL; MCA MIC, EUCAST (C. parapsilosis [5]; persistent infection 1 of 2 in MCA group): 1 µg/mL; MCA MIC, EUCAST (C. parapsilosis [5]; the other persistent infection in MCA group): 0.5 µg/mL; Treatment success rate (clinical and mycologic response at end of therapy) (invasive candidiasis): 73%; TEAEs: Infections and infestations ([6]; MedDRA system organ class): 11 (55) n (%); SAE anemia ([6]; most common SAE in the MCA group): 4 (20%) n (%); Serious TEAEs [6]: 12 (60) n (%); TEAEs [6]: 18 (90) n (%); Treatment-related TEAEs, patients [7]: 23% |
| C[C@@H]1[C@H](O)[C@@H](C)/C=C/C=C/C=C/C=C/C=C/C=C/C=C/[C@H](O[C@@H]2O[C@H](C)[C@@H](O)[C@H](N)[C@@H]2O)C[C@@H]2O[C@](O)(C[C@@H](O)C[C@@H](O)[C@H](O)CC[C@@H](O)C[C@@H](O)CC(=O)O[C@H]1C)C[C@H](O)[C@H]2C(=O)O [AmB-D, Amphotericin B deoxycholate] | 1 (10%) n (%) | 70% | 2 (20%) n (%) | 3 (30%) n (%) | 5 (50%) n (%) | 6 (60) n (%) | 5 (50) n (%) | 3 (30) n (%) | 2 (20) n (%) | 3 (30) n (%) | 2 (20) n (%) | 3 (30) n (%) | 1 (10) n (%) | 2 (20%) n (%) | 3 (30%) n (%) | 3 (30%) n (%) | 3 (30%) n (%) | 5 (50) n (%) | 0 n (%) | 1 (10) n (%) | MIC (C. albicans [8]; [14]): 1 µg/mL (≈ 1.08 µM); MIC (C. albicans [8]; [15]): 1 µg/mL (≈ 1.08 µM); MIC (C. albicans [9]; [14]): 0.25 µg/mL (≈ 0.271 µM); MIC (C. albicans [9]; [15]): 0.5 µg/mL (≈ 0.541 µM); MIC, EUCAST (C. albicans [9]; follow-up cultures on day 9, AmB-D group infant): 0.5 µg/mL (≈ 0.541 µM); Serum creatinine increase >100% [10]: 0 n/N (%); Clinical response: Partial ([3]; at 1 week after last dose of study drug, infants with signs at baseline): 0 n/N (%); Clinical response: Partial ([3]; end of study (30 days after last dose)): 0 n/N (%); Emergent fungal infections through end of study ([3]; full analysis set): 0 n/N (%); MIC (C. glabrata [11]): 1 µg/mL (≈ 1.08 µM); TEAEs: Infections and infestations [12]: 3 (30) n (%); Serious TEAEs [6]: 7 (70) n (%); TEAEs [6]: 9 (90) n (%); MIC (C. glabrata [13]): 0.5 µg/mL (≈ 0.541 µM) |
